Test results published in patent US20050112182A1, “Medical adhesive and medical covering agent using ultraviolet ray curable chitosan derivative” (priority 2003, published 2005).

Test system: subcutaneous tissue
Details: dog, in vivo
Method: The adaptability to an organism was tested in respect of the medical adhesive according to one embodiment of the present invention.
Three incision each having a length of 2 cm in the direction of the body axis were formed on the back of a dog anesthetized with acepromazine (0.5 mg/Kg) and pentobarbital (25 mg/Kg), and each of the subcutaneous regions of the incision portions was enlarged with scissors so as to have a diameter of about 2 cm.
Three kinds of treatments (A), (B) and (C) given below were applied to each of the incision portions:
(A) Dimethyl sulfoxide used as a reference substance was injected in an amount of 0.5 ml, and irradiation with an ultraviolet ray was not performed.
(B) The adhesive was injected in an amount of 0.5 ml, and irradiation with an ultraviolet ray was not performed.
(C) The adhesive was injected in an amount of 0.5 ml, and irradiation with an ultraviolet ray was performed.
One week later, each portion was collected under a general anesthesia so as to carry out the histological analysis.

SMILES: C[S+](C)[O-] [(A) reference, Dimethyl sulfoxide]
- Adaptability to organism (recognition as foreign matter): recognized as a foreign matter within the organism
- Clinical inflammation reaction: not recognized
- Inflammation reaction, histological: prominent histologically
- Clinical inflammation reaction (pain), Second day (sc): ±
- Clinical inflammation reaction (pain), Third day (sc): −
